Measured values taken from patent US20260364184A1, “COMPOUND BASED ON OXOISOINDOLINYL-SUBSTITUTED TETRAHYDROPYRIMIDINE-DIONE AND USE THEREOF” (GLUETACS THERAPEUTICS (SHANGHAI) CO., LTD., priority 2023, published 2026).

Key:
[1] = tested on: AKT; experiment: Western blot degradation of AKT; format: cell-based; conditions: hPBMC Cell; 24 hours
Procedure: Conventional Western blot assay was performed to evaluate the effects of the compounds of the present disclosure on the expression of target proteins in cells.
(1) Cell Seeding and Protein Harvesting: The selected cells were processed according to the cell seeding procedure and protein harvesting procedure in Table II-2.
(2) To the collected supernatant, 5×SDS sample loading buffer was added, followed by denaturation at 95 °C for 5 minutes. The denatured samples were then separated by SDS-PAGE electrophoresis on a polyacrylamide gel. Proteins were transferred to a nitrocellulose membrane (0.45 μm NC membrane), blocked with blocking buffer at room temperature for 1 hour, and subjected to antibody incubation and development procedures according to the antibody manufacturer's instructions (Cell Signaling Technology).
Half-Maximal Degradation Concentration value (the drug concentration required for degrading proteins by 50%, abbreviated as DC50) reads method: comparing the grayscale values of Western blot bands from drug-treated samples with those from blank DMSO-treated controls, and identifying the drug concentration range at which the grayscale value is half that of the DMSO-treated control bands.
DC50 values can be calculated using ImageJ software to measure grayscale values of Western blot bands from drug-treated samples. The concentration-response curve is fitted to estimate the drug concentration corresponding to half the grayscale value.
Target protein remaining (%) refers to the percentage of target protein remaining in cells after treatment with protein degrader compounds.
Calculation method for target protein remaining (%): Use ImageJ software to measure grayscale values of Western blot bands from drug (protein degrader)-treated samples. The grayscale value of drug-treated bands is divided by that of internal control protein bands, and the resulting quotient is normalized to obtain the relative percentage of remaining target protein after protein degrader treatment.
Target protein degradation rate (%)=1−target protein remaining (%).

[2] = molecular target: T1, human Cereblon WT GST-tagged protein (CRBN) (Homo sapiens, UniProt Q96SW2); experiment: CRBN binding by HTRF (Cereblon binding kit)
T1 construct: purchased CISBIO 64BDCRBNPEH
Summary of the method: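 GST-tagged human Cereblon WT was incubated 3 h at room temperature with compound, thalidomide-Re tracer and Eu anti-GST antibody. Final compound concentrations were 10 to 0.00064 µM (7 points) or 2 and 0.5 µM. Inhibition rate was calculated from HTRF 665/620 nm ratios versus solvent and blank controls.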

T1 sequence (Q96SW2 whole entry): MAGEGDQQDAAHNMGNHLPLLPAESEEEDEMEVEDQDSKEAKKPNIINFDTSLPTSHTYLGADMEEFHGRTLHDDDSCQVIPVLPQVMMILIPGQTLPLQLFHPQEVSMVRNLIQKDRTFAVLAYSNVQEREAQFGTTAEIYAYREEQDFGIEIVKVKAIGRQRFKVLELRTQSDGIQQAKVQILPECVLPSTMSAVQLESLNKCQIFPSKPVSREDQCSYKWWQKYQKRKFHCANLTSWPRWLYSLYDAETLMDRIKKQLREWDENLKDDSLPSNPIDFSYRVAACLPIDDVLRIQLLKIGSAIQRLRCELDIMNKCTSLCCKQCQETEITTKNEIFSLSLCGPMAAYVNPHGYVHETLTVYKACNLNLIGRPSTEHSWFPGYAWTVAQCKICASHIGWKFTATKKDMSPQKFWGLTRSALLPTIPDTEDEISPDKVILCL

Compound | Degradation of substrate protein AKT (substrate protein remaining %) [1] | inhibition at 0.5 µM ([2]; 0.5 μM, read-out: Inhibition Rate at 0.5 μM (%)) [%] | inhibition at 2 µM ([2]; 2 μM, read-out: Inhibition Rate at 2 μM (%)) [%]
Nc1ncccc1-c1nc2ccc(-c3ccccc3)nc2n1-c1ccc(C2(NCc3ccc4c(c3)CN(N3CCC(=O)NC3=O)C4=O)CCC2)cc1 [GT-08573, 1-(5-(((1-(4-(2-(2-aminopyridin-3-yl)-5-phenyl-3H-imidazo[4,5-b]pyridin-3-yl)phenyl)cyclobutyl)amino)methyl)-1-oxoisoindolin-2-yl)dihydropyrimidine-2,4 (1H,3H)-dione] | A (0%≤substrate protein remaining %≤80%) |  | 
Cn1ncc(Cl)c1-c1cc(C(=O)N[C@@H](Cc2ccc(F)c(F)c2)CN2CCN(Cc3ccc4c(c3)CN(N3CCC(=O)NC3=O)C4=O)CC2)oc1Cl [GT-08575, (S)-5-chloro-4-(4-chloro-1-methyl-1H-pyrazol-5-yl)-N-(1-(3,4-difluorophenyl)-3-(4-((2-(2,4-dioxotetrahydropyrimidin-1(2H)-yl)-1-oxoisoindolin-5-yl)methyl)piperazin-1-yl)propan-2-yl) furan-2-carboxamide] | A (0%≤substrate protein remaining %≤80%) |  | 
Cn1ncc(Cl)c1-c1cc(C(=O)N[C@H](CNCc2ccc3c(c2)C(=O)N(N2CCC(=O)NC2=O)C3=O)Cc2cccc(F)c2)sc1Cl [GT-08577, (S)-5-chloro-4-(4-chloro-1-methyl-1H-pyrazol-5-yl)-N-(1-(((2-(2,4-dioxotetrahydropyrimidin-1(2H)-yl)-1,3-dioxoisoindolin-5-yl)methyl)amino)-3-(3-fluorophenyl)propan-2-yl)thiophene-2-carboxamide] | A (0%≤substrate protein remaining %≤80%) |  | 
Nc1ncccc1-c1nc2ccc(-c3ccccc3)nc2n1-c1ccc(C2(NCc3ccc4c(c3)C(=O)N(N3CCC(=O)NC3=O)C4=O)CCC2)cc1 [GT-08578, 5-(((1-(4-(2-(2-aminopyridin-3-yl)-5-phenyl-3H-imidazo[4,5-b]pyridin-3-yl)phenyl)cyclobutyl)amino)methyl)-2-(2,4-dioxotetrahydropyrimidin-1(2H)-yl)isoindoline-1,3-dione] | A (0%≤substrate protein remaining %≤80%) |  | 
Cn1ncc(Cl)c1-c1cc(C(=O)N[C@H](CNCc2ccc3c(c2)C(=O)N(N2CCC(=O)NC2=O)C3=O)Cc2ccc(F)c(F)c2)oc1Cl [GT-08579, (S)-5-chloro-4-(4-chloro-1-methyl-1H-pyrazol-5-yl)-N-(1-(3,4-difluorophenyl)-3-(((2-(2,4-dioxotetrahydropyrimidin-1(2H)-yl)-1,3-dioxoisoindolin-5-yl)methyl)amino)propan-2-yl) furan-2-carboxamide] | A (0%≤substrate protein remaining %≤80%) |  | 
Cn1ncc(Cl)c1-c1cc(C(=O)N[C@@H](Cc2ccc(F)c(F)c2)CN2CCN(Cc3ccc4c(c3)C(=O)N(N3CCC(=O)NC3=O)C4=O)CC2)oc1Cl [GT-08580, (S)-5-chloro-4-(4-chloro-1-methyl-1H-pyrazol-5-yl)-N-(1-(3,4-difluorophenyl)-3-(4-((2-(2,4-dioxotetrahydropyrimidin-1(2H)-yl)-1,3-dioxoisoindolin-5-yl)methyl)piperazin-1-yl)propan-2-yl) furan-2-carboxamide] | A (0%≤substrate protein remaining %≤80%) |  | 
Cn1ncc(Cl)c1-c1cc(C(=O)N[C@@H](Cc2cccc(F)c2)CN2CCN(Cc3ccc4c(c3)C(=O)N(N3CCC(=O)NC3=O)C4=O)CC2)sc1Cl [GT-08581, (S)-5-chloro-4-(4-chloro-1-methyl-1H-pyrazol-5-yl)-N-(1-(4-((2-(2,4-dioxotetrahydropyrimidin-1(2H)-yl)-1,3-dioxoisoindolin-5-yl)methyl)piperazin-1-yl)-3-(3-fluorophenyl)propan-2-yl)thiophene-2-carboxamide] | A (0%≤substrate protein remaining %≤80%) |  | 
Cn1ncc(Cl)c1-c1cc(C(=O)N[C@H](CNCC2CCN(c3ccc4c(c3)C(=O)N(N3CCC(=O)NC3=O)C4=O)CC2)Cc2cccc(F)c2)sc1Cl [GT-08582, (S)-5-chloro-4-(4-chloro-1-methyl-1H-pyrazol-5-yl)-N-(1-(((1-(2-(2,4-dioxotetrahydropyrimidin-1(2H)-yl)-1,3-dioxoisoindolin-5-yl)piperidin-4-yl)methyl)amino)-3-(3-fluorophenyl)propan-2-yl)thiophene-2-carboxamide] | A (0%≤substrate protein remaining %≤80%) |  | 
Nc1ncccc1-c1nc2ccc(-c3ccccc3)nc2n1-c1ccc(C2(NCC3CCN(c4ccc5c(c4)C(=O)N(N4CCC(=O)NC4=O)C5=O)CC3)CCC2)cc1 [GT-08583, 5-(4-(((1-(4-(2-(2-aminopyridin-3-yl)-5-phenyl-3H-imidazo[4,5-b]pyridin-3-yl)phenyl)cyclobutyl)amino)methyl)piperidin-1-yl)-2-(2,4-dioxotetrahydropyrimidin-1(2H)-yl)isoindoline-1,3-dione] | A (0%≤substrate protein remaining %≤80%) |  | 
Cn1ncc(Cl)c1-c1cc(C(=O)N[C@H](CNCC2CCN(c3ccc4c(c3)C(=O)N(N3CCC(=O)NC3=O)C4=O)CC2)Cc2ccc(F)c(F)c2)oc1Cl [GT-08584, (S)-5-chloro-4-(4-chloro-1-methyl-1H-pyrazol-5-yl)-N-(1-(3,4-difluorophenyl)-3-(((1-(2-(2,4-dioxotetrahydropyrimidin-1(2H)-yl)-1,3-dioxoisoindolin-5-yl)piperidin-4-yl)methyl)amino)propan-2-yl) furan-2-carboxamide] | A (0%≤substrate protein remaining %≤80%) | 10 to 20 | 53 to 60
Cn1ncc(Cl)c1-c1cc(C(=O)N[C@@H](Cc2cccc(F)c2)CN2CCN(CC3CCN(c4ccc5c(c4)C(=O)N(N4CCC(=O)NC4=O)C5=O)CC3)CC2)sc1Cl [GT-08586, (S)-5-chloro-4-(4-chloro-1-methyl-1H-pyrazol-5-yl)-N-(1-(4-((1-(2-(2,4-dioxotetrahydropyrimidin-1(2H)-yl)-1,3-dioxoisoindolin-5-yl)piperidin-4-yl)methyl)piperazin-1-yl)-3-(3-fluorophenyl)propan-2-yl)thiophene-2-carboxamide] | A (0%≤substrate protein remaining %≤80%) |  | 
